Reference: US12239623B2, “Sleep-improving compositions and methods of use” (priority 2023, dated 2025)

Assays:
Assay type in all cases: in vivo
[1] = test system: GluA1; experiment: Western blot of brain GluA1 in caffeine-treated mice (Example 1); settings: FIG. 1D, male BALB/c mice brain, reduced from 100%, caffeine 7.5 mg/kg i.p., combos given together with caffeine, after two hours
Protocol: (§1) Five male BALB/c mice per treatment arm (age: 8 weeks; weight: […]) were housed in a controlled environment with a 12:12-h light-dark cycle at 22° C. and were provided with mice chow and water ad libitum. The mice were fasted for 24 hours prior to the study, which was conducted between 1 pm and 5 pm and under the National Institutes of Health's Guidelines for the Care and Use of Laboratory Animals and approved by the Ethics Committee of the Medipol University. The mice were divided into eight groups and anesthetized with urethane (1.25 g/kg, i.p.; Sigma U2500) and carefully placed in a stereotaxic frame. Rectal temperatures were maintained between 36.5° C. and 37.0° C. using a feedback-controlled-heating system (507221F, Harvard Apparatus, ABD). Lidocaine (2.0%) was applied on the incision area to prevent any occurrence of pain. A midline incision was made on the skin along the sagittal suture of the skull. A part of the cranium overlying the left parietal cortex was removed using a dental drill. Ag—AgCl ball electrodes were placed on the left somatomotor cortex (1 mm anterior/1.5 mm lateral from bregma; 3 mm posterior/1.5 mm lateral from bregma) and the reference electrode was attached to the left foot for an ECoG recording. Group 1 were treated with saline. To induce sleep disturbance, 7.5 mg/kg caffeine was injected intraperitoneally at minute 15 of recordings to groups 2-8. […]

[2] = test system: male BALB/c mice; experiment: EEG amplitude and frequency in caffeine-treated mice (Example 1); settings: caffeine 7.5 mg/kg, compositions in combination with caffeine
Protocol: as §1, with “drill.” for “drill. Ag—AgCl ball electrodes were placed on the left somatomotor cortex (1 mm anterior/1.5 mm lateral from bregma; 3 mm posterior/1.5 mm lateral from bregma) and the reference electrode was attached to the left foot for an ECoG recording. Group 1 were treated with saline. To induce sleep disturbance, 7.5 mg/kg caffeine was injected intraperitoneally at minute 15 of recordings to groups 2-8.”
(§2) After the administration, the mice were placed in individual cages and subjected to measurements of sleep latency and duration. Brain electrical activity were monitored and recorded for a total of 2 hours. […]

[3] = test system: OVX female mice; experiment: Serum melatonin by ELISA in OVX female mice (Example 3); settings: FIG. 3, saline control about 11 pg/ml, caffeine 7.5 mg/kg, composition given with caffeine
Protocol: (§3) Both OVX female mice and male mice were divided into three groups: group treated with saline, group treated with 7.5 mg/kg caffeine, and group treated with a combination of 7.5 mg/kg caffeine and the magnesium glycinate, L-theanine, GABA, SAMe and propyl gallate composition. […] Levels of serum melatonin were measured by ELISA kits.

[4] = test system: GABAB receptor 1; experiment: Western blot of brain GABAB receptor 1 in caffeine-treated mice (Example 1); settings: FIG. 1B, male BALB/c mice brain, reduced from 100%, caffeine 7.5 mg/kg i.p., combos given together with caffeine, after two hours
Protocol: as §1

[5] = test system: GABAA receptor 2; experiment: Western blot of brain GABAA receptor 2 in caffeine-treated mice (Example 1); settings: FIG. 1A, male BALB/c mice brain, reduced from 100%, caffeine 7.5 mg/kg i.p., combos given together with caffeine, after two hours
Protocol: as §1

[6] = test system: male mice; experiment: Serum melatonin by ELISA in male mice (Example 3); settings: FIG. 3, saline control about 33 pg/ml, caffeine 7.5 mg/kg, composition given with caffeine
Protocol: as §3

[7] = test system: 5-HT1A; experiment: Western blot of brain 5-HT1A in caffeine-treated mice (Example 1); settings: FIG. 1G, male BALB/c mice brain, reduced from 100%, caffeine 7.5 mg/kg i.p., combos given together with caffeine, after two hours
Protocol: as §1

[8] = test system: GluN2A; experiment: Western blot of brain GluN2A in caffeine-treated mice (Example 1); settings: FIG. 1F, male BALB/c mice brain, reduced from 100%, caffeine 7.5 mg/kg i.p., combos given together with caffeine, after two hours
Protocol: as §1

[9] = test system: GABAB receptor 2; experiment: Western blot of brain GABAB receptor 2 in caffeine-treated mice (Example 1); settings: FIG. 1C, male BALB/c mice brain, reduced from 100%, caffeine 7.5 mg/kg i.p., combos given together with caffeine, after two hours
Protocol: as §1

[10] = test system: GluN1; experiment: Western blot of brain GluN1 in caffeine-treated mice (Example 1); settings: FIG. 1E, male BALB/c mice brain, reduced from 100%, caffeine 7.5 mg/kg i.p., combos given together with caffeine, after two hours
Protocol: as §1

[11] = test system: male BALB/c mice; experiment: Sleep duration and sleep latency in mice (Example 1); settings: pentobarbital 42 mg/kg, combos together with caffeine
Protocol: as §1, with “drill.” for “drill. Ag—AgCl ball electrodes were placed on the left somatomotor cortex (1 mm anterior/1.5 mm lateral from bregma; 3 mm posterior/1.5 mm lateral from bregma) and the reference electrode was attached to the left foot for an ECoG recording. Group 1 were treated with saline. To induce sleep disturbance, 7.5 mg/kg caffeine was injected intraperitoneally at minute 15 of recordings to groups 2-8.”
as §2

Structure (SMILES) | percentage of GluA1 receptor [1] | EEG amplitude ([2]; FIG. 1H, from about 100 mV, within 75 minutes) | EEG frequency ([2]; FIG. 1I, from about 100 spikes, in 90 minutes) | melatonin level [3] | percentage of GABAB receptor 1 [4] | percentage of GABAA receptor 2 [5] | melatonin level [6] | percentage of 5-HT1A receptor [7] | percentage of GluN2A receptor [8] | percentage of GABAB receptor 2 [9] | percentage of GluN1 receptor [10] | sleep duration ([11]; FIG. 1J) | sleep latency ([11]; FIG. 1K)
Cn1c(=O)c2c(ncn2C)n(C)c1=O [caffeine] | about 26% | about 70 mV | about 200 spikes | about 8 pg/ml | about 18% | about 25% | about 12 pg/ml | about 20% | about 20% | about 28% | about 35% | – | –
CCCC(C)C1(CC)C(=O)NC(=O)NC1=O (stereo not shown) [pentobarbital] | – | – | – | – | – | – | – | – | – | – | – | about 50 minutes | about 2 minutes
